According to patent US10905770B2, “Topical delivery of therapeutic agents using cell-penetrating peptides for the treatment of age-related macular degeneration and other eye diseases” (priority 2017, dated 2021):
Entries after “also recorded” stand apart in the source; their conditions may differ.

Legend:
[1] = Description: (§1) Lutein was dissolved in DMSO (10 mg/mL) and titrated into water. […] As a proxy for topical delivery into the eye by eye drop, 50 μL of lutein plus hexa-arginine (SEQ ID NO: 258) or lutein alone was applied to one side of the outer shell membrane of a chicken egg, and the material that crossed the membrane in water was collected after 2 minutes. The level of lutein was measured by absorbance. The experiment was conducted three times (n=3).
as §1, with “Zeaxanthin” for “Lutein”, “DMF” for “DMSO”, “zeaxanthin” for “lutein”
as §1, with “into water, zeaxanthin was dissolved in DMF (10 mg/mL) and titrated into water, and then lutein and zeaxanthin were mixed in a 1:1 ratio.” for “into water.”, “lutein and zeaxanthin” for “lutein”, “NO: 258),” for “NO: 258)”, “lutein and zeaxanthin without CPP,” for “lutein alone”
as §1, with “Dexamethasone” for “Lutein”, “DMSO” for “DMSO (10 mg/mL)”, “dexamethasone” for “lutein”, “presence” for “level”, “detected” for “measured”, “electrospray mass spectroscopy.” for “absorbance. The experiment was conducted three times (n=3).”
Tacrolimus was dissolved in DMSO and titrated into water. […] As a proxy for topical delivery into the eye by eye drop, 50 μL of tacrolimus plus hexa-arginine (SEQ ID NO: 258) or tacrolimus alone was applied to one side of the outer shell membrane of a chicken egg, and the material that crossed the membrane in water was collected after 2 minutes. The presence of tacrolimus was detected by electrospray mass spectroscopy.
as §1, with “Adalimumab” for “Lutein”, “fluorescently tagged” for “dissolved in DMSO (10 mg/mL)”, “purified.” for “titrated into water.”, “adalimumab” for “lutein”, “PBS” for “water”, “fluorescence.” for “absorbance.”
As a proxy for topical delivery into the eye by eye drop, 50 μL of glucose plus hexa-arginine (SEQ ID NO: 258) or glucose alone was applied to one side of the outer shell membrane of a chicken egg, and the material that crossed the membrane in water was collected after 2 minutes. The presence of glucose was detected by electrospray mass spectroscopy.
(§2) As a proxy for topical delivery into the eye by eye drop, 50 μL of BDNF plus hexa-arginine (SEQ ID NO: 258) or BDNF alone was applied to one side of the outer shell membrane of a chicken egg, and the material that crossed the membrane in PBS was collected after 2 minutes. The level of BDNF was measured by ELISA. The experiment was conducted three times (n=3).
as §2, with “GDNF” for “BDNF”, “ELISA.” for “ELISA. The experiment was conducted three times (n=3).”

rat eye in vivo = assay: CPP-assisted delivery into rat eye in vivo
Description: An eye drop of 50 μL of bevacizumab plus hexa-arginine (SEQ ID NO: 258) was applied topically to the front of one of the eyes of a live rat, and then the rat was sacrificed 60 minutes after topical application.

geographic atrophy (GA) = conditions: vs placebo, cited from earlier work
[2] = tested on: neutral lipids in and on the Bruch's membrane; assay: Oil red O staining of neutral lipids in Bruch's membrane, macaque study; type: in vivo, Macaca fascicularis; conditions: eyes injected with L-4F vs eyes injected with placebo; 6 monthly intravitreal injections (total 625 μg); after 6 months
Description: (§3) The macaque study was conducted according to accepted guidelines. […] One eye per animal received 6 monthly injections of the same escalating dosages of L-4F or scrambled L-4F (total of 625 μg) in a 50 μL volume. The second eye per animal was not injected and was just observed.
(§4) Clinical laboratory tests including serology, hemograms and liver enzymes were conducted, and ophthalmic examinations were also performed, including fundus photographs, optical coherence tomography (OCT), intraocular pressure testing and blood sampling. After 7 months, all animals were sacrificed and eyes were immediately prepared for histology. Histochemistry was performed with oil red O for neutral lipids and filipin for esterified cholesterol. […]
For staining with oil red O (ORO), specimens were treated with a 0.3% oil red O (Sigma-Aldrich Biochemie GmbH, Hamburg, Germany) solution (in 99% isopropanol) for 30 min at room temperature (RT), followed by immersion in a 60% isopropanol solution for 12 min. […] Image analysis was performed by grading the intensity of ORO staining (red color) of the Bruch's membrane (BrM) with scores ranging from 0 to 4, according to a qualitative evaluation assessed in four different regions in two separate slices from each eye (a total of 8 different regions from each eye). […]

[3] = tested on: esterified cholesterol in the Bruch's membrane; assay: Filipin staining of esterified cholesterol in Bruch's membrane, macaque study; type: in vivo, Macaca fascicularis; conditions: eyes injected with L-4F vs placebo-injected eyes; 6 monthly intravitreal injections
Description: as §3
as §4, with “histology.” for “histology. Histochemistry was performed with oil red O for neutral lipids and filipin for esterified cholesterol.”
For staining with filipin, specimens were washed once with deionized water for 5 min and then treated with 70% ethanol for 45 min. […] The specimens were then washed sequentially with PBS and deionized water, mounted with a mounting solution (Mowiol®, Carl Roth GmbH, Karlsruhe, Germany), covered with a glass cover slip, and examined using an inverted fluorescence microscope (DMI 6000 from Leica Microsystems, Wetzlar, Germany). Filipin fluorescence was observed using a UV filter set (λex/λem=350 nm/455 nm). […] Semiquantitative analysis of fluorescence intensity of filipin at three separate regions of the BrM was done on three different slides from the same eye (a total of 9 different regions from each eye).

[4] = tested on: membrane attack complex (MAC, C5b-9); assay: Immunohistochemistry of membrane attack complex, macaque study; type: in vivo, Macaca fascicularis; conditions: eyes injected with L-4F vs eyes injected with the scrambled peptide; fluorescence intensity
Description: as §3
as §4, with “histology.” for “histology. Histochemistry was performed with oil red O for neutral lipids and filipin for esterified cholesterol.”
(§5) Assays for immunohistochemistry of the membrane attack complex (MAC, C5b-9) and complement factor D (CFD) were performed identically except for employment of monoclonal antibodies specific for each complement component. […] Fluorescence microscopy was conducted using an inverted fluorescence microscope (DMI 6000 from Leica Microsystems, Wetzlar, Germany) and a filter set for λex/λem=470 nm/525 nm. For the semiquantitative analysis of fluorescence intensity of C5b-9, 3-5 different regions in one slide were analyzed for 3 different slides from each eye (a total of 9-15 different regions from each eye). For the semiquantitative analysis of fluorescence intensity of complement factor D, 3 distinct regions for each eye were evaluated.

[5] = tested on: geriatric macaques with naturally occurring age-related maculopathy; assay: Bruch's membrane thickness by electron microscopy, macaque study; type: in vivo, Macaca fascicularis
Description: as §3
Lipid deposition in the Bruch's membrane contributes to thickening of the BrM. Bruch's membrane thickness was measured at the temporal outer macula of enucleated eyes examined by electron microscopy post-mortem.

[6] = tested on: geriatric macaques with naturally occurring age-related maculopathy; assay: Macaque study: fellow non-injected eye, tolerability and blood hsCRP; type: in vivo
Description: as §3
Clinical laboratory tests including serology, hemograms and liver enzymes were conducted, and ophthalmic examinations were also performed, including fundus photographs, optical coherence tomography (OCT), intraocular pressure testing and blood sampling. After 7 months, all animals were sacrificed and eyes were immediately prepared for histology. Histochemistry was performed with oil red O for neutral lipids and filipin for esterified cholesterol. Immunohistochemistry was performed against complement factor D (CFD) and the membrane attack complex (MAC, C5b-9), both being markers of activation of the alternative complement pathway.
Circulating hsCRP, which is mainly produced in the liver, is a non-specific marker for systemic inflammation.

[7] = tested on: complement factor D (CFD); assay: Immunohistochemistry of complement factor D, macaque study; type: in vivo, Macaca fascicularis; conditions: eyes injected with L-4F vs eyes injected with the scrambled peptide; fluorescence intensity
Description: as §3
as §4, with “histology.” for “histology. Histochemistry was performed with oil red O for neutral lipids and filipin for esterified cholesterol.”
as §5

In the case of C[C@@H]1C[C@H]2[C@@H]3CCC4=CC(=O)C=C[C@]4(C)[C@@]3(F)[C@@H](O)C[C@]2(C)[C@@]1(O)C(=O)CO [dexamethasone, reference compound], the “crossing of the egg shell membrane (electrospray mass spectroscopy)” value [1] is reported as “did not cross”.

In the case of CC1=C(/C=C/C(C)=C/C=C/C(C)=C/C=C/C=C(C)/C=C/C=C(C)/C=C/C2=C(C)C[C@@H](O)CC2(C)C)C(C)(C)C[C@H](O)C1 [zeaxanthin], the “crossing of the egg shell membrane” value [1] is reported as “a very small amount”.

In the case of bevacizumab: anti-VEGF antibody, the “delivery into the posterior segment (the vitreous and the retina) of the treated eye” value (rat eye in vivo; 50 μL eye drop, bevacizumab 25 mg/mL plus hexa-arginine 5 mg/mL, 60 minutes, human IgG ELISA) is reported as “entered; also recorded: delivered”, the “level in the bloodstream” value (rat eye in vivo; 60 minutes after topical application) is reported as “not detected” and the “level in the fellow untreated eye” value (rat eye in vivo; 60 minutes after topical application to the other eye, human IgG ELISA) is reported as “not detected”.

For CC1=C[C@H](O)CC(C)(C)[C@H]1/C=C/C(C)=C/C=C/C(C)=C/C=C/C=C(C)/C=C/C=C(C)/C=C/C1=C(C)C[C@@H](O)CC1(C)C [lutein], the “crossing of the egg shell membrane” value [1] was “did not cross”.

In the case of “lampalizumab: antigen-binding fragment (Fab) of a humanized monoclonal antibody targeting CFD”, the “reduction in the rate of GA enlargement, and hence the area of GA, in the injected eye” value (geographic atrophy (GA); monthly intravitreal injections of 10 mg for 18 months, fundus autofluorescence) is given as “about 20%” and the “reduction in the GA growth rate, and hence the area of GA” value (geographic atrophy (GA); subgroup positive for CFI mutations, monthly intravitreal 10 mg for 18 months) is given as “about 44%”.

In the case of adalimumab, the “amount that crossed the membrane with hexa-arginine compared with without” value [1] is reported as “markedly greater” and the “fluorescence of material that crossed the egg shell membrane” value [1] is reported as 1359±3.

For Ac-DWFKAFYDKVAEKFKEAF-NH2 [L-4F], the “reduction of lipid deposits from the BrM (staining with oil red O)” value [2] was “about 56%”, the “reduction of esterified cholesterol in the BrM (filipin fluorescence)” value [3] was “about 68%” and the “decreased level of MAC (C5b-9) in the BrM and the choriocapillaris” value [4] was “about 58%”. The “reduction of BrM thickness” value ([5]; eyes injected with L-4F vs eyes injected with placebo) was “about 24%”, the BrM thickness ([5]; eyes injected with L-4F, temporal outer macula, electron microscopy post-mortem, ±SE) was 1.31 μm and the “blood level of high-sensitivity C-reactive protein (hsCRP)” value ([6]; after 6 monthly intravitreal injections vs day prior to first injection) was “did not increase”. For the same molecule, the “tolerability (adverse events, side effects)” value ([6]; macaques intravitreally injected with L-4F) was “well tolerated” and the “decreased level of complement factor D” value [7] was “about 41%”.

For C=CC[C@@H]1/C=C(\C)C[C@H](C)C[C@H](OC)[C@H]2O[C@@](O)(C(=O)C(=O)N3CCCC[C@H]3C(=O)O[C@H](/C(C)=C/[C@@H]3CC[C@@H](O)[C@H](OC)C3)[C@H](C)[C@@H](O)CC1=O)[C@H](C)C[C@@H]2OC [tacrolimus, reference compound], the “crossing of the egg shell membrane (electrospray mass spectroscopy)” value [1] was “did not cross”.

B1: GDNF: glial cell-derived neurotrophic factor (protein, UniProt P39905 78-211, looked up)
Glial cell line-derived …: SPDKQMAVLPRRERNRQAAAANPENSRGKGRRGQRGKNRGCVLTAIHLNVTDLGLGYETKEELIFRYCSGSCDAAETTYDKILKNLSRNRRLVSDKVGQACCRPIAFDDDLSFLDDNLVYHILRKHSAKRCGCI
With B1 the “crossing of the egg shell membrane” value [1] was “did not cross”.

B2: BDNF: brain-derived neurotrophic factor (protein, UniProt P23560 19-247, looked up)
Neurotrophic factor BDNF …: APMKEANIRGQGGLAYPGVRTHGTLESVNGPKAGSRGLTSLADTFEHVIEELLDEDQKVRPNEENNKDADLYTSRVMLSSQVPLEPPLLFLLEEYKNYLDAANMSMRVRRHSDPARRGELSVCDSISEWVTAADKKTAVDMSGGTVTVLEKVPVSKGQLKQYFYETKCNPMGYTKEGCRGIDKRHWNSQCRTTQSYVRALTMDSKKRIGWRFIRIDTSCVCTLTIKRGR
For B2, the “crossing of the egg shell membrane” value [1] was “did not cross”.
